Data set [1] is described as follows: Protolysis constant at an ionic strength of 0.1 M. Format: ADME.
Data set [2] is filed under the species Rattus norvegicus. Put plainly: In vitro stimulation of norepinephrine release from hippocampal nerve endings. The format is functional. To be noted: Hippocampus.
The species entered for data set [3] is Rattus norvegicus. Kind of data set: Inhibition of stimulation of NE release by 100 uM of AMPA. Format: functional.
Data set [4] deals with Glutamate receptor ionotropic, AMPA (Rattus norvegicus, UniProt P19490+P19491+P19492+P19493). Put plainly: Inhibition of specific binding of [3H]AMPA to Ionotropic glutamate receptor AMPA in rat brain membranes. The format is cell membranes.

These results are taken from ChEMBL document CHEMBL1130171, “Structure--activity studies for alpha-amino-3-hydroxy-5-methyl-4-isoxazolepropanoic acid receptors: acidic hydroxyphenylalanines” (J Med Chem, 1997).

In the case of `NC(Cn1cc([N+](=O)[O-])c(=O)[nH]c1=O)C(=O)O` (centres undefined), in data set [1], the pKa was determined as 6.4. Moreover, the 50% effective concentration (EC50) in data set [2] was 15 µM. For the compound `O=[N+]([O-])c1cc2nc(O)c(O)nc2cc1[N+](=O)[O-]` [DNQX], the midpoint of inhibition in data set [3], the IC50, lay at 41 µM. The compound `C=C(C)[C@H]1CN[C@H](C(=O)O)[C@H]1CC(=O)O` [KAINIC ACID] had an EC50 in data set [2] of 3.7 µM. As for `NC(Cc1ccccc1O)C(=O)O` (centres undefined), in data set [1], the pKa was 8.67.

In data set [1], `NC(Cc1ccc([N+](=O)[O-])c(O)c1[N+](=O)[O-])C(=O)O` (centres undefined) showed a pKa of 3.2. The compound further yielded a concentration for half-maximal inhibition (IC50) in data set [4] of 4.9 µM. In data set [2], this compound came in with an EC50 of 74 µM.

In data set [1], `Cc1cc([N+](=O)[O-])ccc1O` showed a pKa of 7.2. The compound `O=C(O)C(O)Cc1cc([N+](=O)[O-])cc([N+](=O)[O-])c1O` (centres undefined) had a pKa in data set [1] of 4.2. In turn, `NC(Cc1cc(O)ccc1[N+](=O)[O-])C(=O)O` (centres undefined) came in with a pKa in data set [1] of 6.8. Consider `NC(Cc1cc([N+](=O)[O-])ccc1O)C(=O)O` (centres undefined), for which the pKa in data set [1] amounted to 6.4. The compound `NC(Cc1cc([N+](=O)[O-])cc([N+](=O)[O-])c1O)C(=O)O` (centres undefined) had a pKa in data set [1] of 6.4. In addition, the half-inhibitory concentration (IC50) in data set [4] worked out at 25 µM; in data set [3], 730 µM. Take `NC(Cc1ccc(O)c([N+](=O)[O-])c1)C(=O)O` (centres undefined): in data set [1], the pKa was 6.8. Take `NC(Cc1c([N+](=O)[O-])ccc(O)c1[N+](=O)[O-])C(=O)O` (centres undefined): the pKa in data set [1] turned out to be 3.6. In data set [1], `N[C@@H](Cc1cc([N+](=O)[O-])c(O)c([N+](=O)[O-])c1)C(=O)O` showed a pKa of 3.2. `NC(Cn1ccc(=O)[nH]c1=O)C(=O)O` (racemic) came in with a pKa in data set [1] of 9.3. In turn, `Cc1cccc([N+](=O)[O-])c1O` showed a pKa in data set [1] of 7.7.

With `NC(Cc1ccc([N+](=O)[O-])c(O)c1)C(=O)O` (centres undefined), the pKa in data set [1] came to 6.6. In data set [2], `Cc1onc(O)c1C[C@H](N)C(=O)O` [(S)-AMPA] yielded an EC50 of 6.7 µM. On to `NC(Cc1cccc([N+](=O)[O-])c1O)C(=O)O` (centres undefined), for which the pKa in data set [1] stood at 6.6.

Regarding `NC(Cc1cc(O)c([N+](=O)[O-])cc1[N+](=O)[O-])C(=O)O` (centres undefined), the pKa in data set [1] was 3.8.
